{"source": "PubChem BioAssay AID463149", "about": "(The Scripps Research Institute Molecular Screening Center, 2010)", "assay_in_all_cases": "PME-1 inhibition and serine hydrolase selectivity by ABPP – cell lysate, gel-based competitive ABPP, fluorescence, powder samples, selectivity assay, late-stage follow-up (AID 463149);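 further: 0% = DMSO-treated band intensity and 100% = blank gel background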", "key": {"Anti-Target PREP": {"tested_on": "Anti-Target PREP", "details": "HeLa soluble proteome, FP-Rh fluorescence, measured here: Anti-Target PREP, stronger effect = higher value"}, "Anti-Target CES": {"tested_on": "Anti-Target CES", "details": "HeLa soluble proteome, FP-Rh fluorescence, measured here: Anti-Target CES, stronger effect = higher value"}, "Anti-Target ABHD10": {"tested_on": "Anti-Target ABHD10", "details": "HeLa soluble proteome, FP-Rh fluorescence, stronger effect = higher value"}, "[1]": {"target": "Protein phosphatase methylesterase 1 (Homo sapiens) (UniProt Q9Y570)", "sequence (Q9Y570 whole entry, looked up)": "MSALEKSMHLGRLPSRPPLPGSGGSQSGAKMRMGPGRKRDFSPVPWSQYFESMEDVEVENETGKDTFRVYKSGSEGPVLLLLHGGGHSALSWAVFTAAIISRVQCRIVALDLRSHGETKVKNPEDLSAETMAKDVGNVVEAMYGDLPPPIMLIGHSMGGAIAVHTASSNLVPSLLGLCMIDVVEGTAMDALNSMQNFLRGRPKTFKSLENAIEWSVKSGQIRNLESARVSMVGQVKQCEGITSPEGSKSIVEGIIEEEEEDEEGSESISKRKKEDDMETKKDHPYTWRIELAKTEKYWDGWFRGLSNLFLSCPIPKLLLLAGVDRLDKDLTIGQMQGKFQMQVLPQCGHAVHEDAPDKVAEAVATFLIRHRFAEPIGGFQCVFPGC", "details": "HeLa soluble proteome, FP-Rh fluorescence, PME-1, inhibition, stronger effect = higher value"}, "[2]": {"target": "Acylamino-acid-releasing enzyme (Homo sapiens) (UniProt P13798)", "sequence (P13798 whole entry, looked up)": "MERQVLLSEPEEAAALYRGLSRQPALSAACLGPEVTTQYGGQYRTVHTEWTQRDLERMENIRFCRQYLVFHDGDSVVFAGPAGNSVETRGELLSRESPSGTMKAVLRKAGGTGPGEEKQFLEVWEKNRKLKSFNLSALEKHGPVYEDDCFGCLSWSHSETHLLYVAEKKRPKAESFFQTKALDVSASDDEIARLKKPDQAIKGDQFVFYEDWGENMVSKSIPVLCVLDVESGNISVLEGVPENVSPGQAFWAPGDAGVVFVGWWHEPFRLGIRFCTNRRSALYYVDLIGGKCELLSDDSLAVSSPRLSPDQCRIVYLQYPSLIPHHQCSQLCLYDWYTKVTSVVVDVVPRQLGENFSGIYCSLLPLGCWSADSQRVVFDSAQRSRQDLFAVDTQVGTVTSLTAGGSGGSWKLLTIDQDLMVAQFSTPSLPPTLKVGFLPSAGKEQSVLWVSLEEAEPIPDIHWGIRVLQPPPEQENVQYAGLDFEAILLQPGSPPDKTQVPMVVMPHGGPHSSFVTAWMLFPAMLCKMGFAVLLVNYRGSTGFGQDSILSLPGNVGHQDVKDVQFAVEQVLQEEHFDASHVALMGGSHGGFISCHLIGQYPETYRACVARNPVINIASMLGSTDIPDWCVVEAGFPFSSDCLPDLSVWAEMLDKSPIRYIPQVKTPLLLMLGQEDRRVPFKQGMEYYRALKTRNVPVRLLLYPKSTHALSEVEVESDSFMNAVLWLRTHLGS", "details": "HeLa soluble proteome, FP-Rh fluorescence, measured here: Anti-Target APEH, stronger effect = higher value"}, "[3]": {"target": "Fatty acid synthase (Homo sapiens) (UniProt P49327)", "sequence (P49327 whole entry, looked up)": "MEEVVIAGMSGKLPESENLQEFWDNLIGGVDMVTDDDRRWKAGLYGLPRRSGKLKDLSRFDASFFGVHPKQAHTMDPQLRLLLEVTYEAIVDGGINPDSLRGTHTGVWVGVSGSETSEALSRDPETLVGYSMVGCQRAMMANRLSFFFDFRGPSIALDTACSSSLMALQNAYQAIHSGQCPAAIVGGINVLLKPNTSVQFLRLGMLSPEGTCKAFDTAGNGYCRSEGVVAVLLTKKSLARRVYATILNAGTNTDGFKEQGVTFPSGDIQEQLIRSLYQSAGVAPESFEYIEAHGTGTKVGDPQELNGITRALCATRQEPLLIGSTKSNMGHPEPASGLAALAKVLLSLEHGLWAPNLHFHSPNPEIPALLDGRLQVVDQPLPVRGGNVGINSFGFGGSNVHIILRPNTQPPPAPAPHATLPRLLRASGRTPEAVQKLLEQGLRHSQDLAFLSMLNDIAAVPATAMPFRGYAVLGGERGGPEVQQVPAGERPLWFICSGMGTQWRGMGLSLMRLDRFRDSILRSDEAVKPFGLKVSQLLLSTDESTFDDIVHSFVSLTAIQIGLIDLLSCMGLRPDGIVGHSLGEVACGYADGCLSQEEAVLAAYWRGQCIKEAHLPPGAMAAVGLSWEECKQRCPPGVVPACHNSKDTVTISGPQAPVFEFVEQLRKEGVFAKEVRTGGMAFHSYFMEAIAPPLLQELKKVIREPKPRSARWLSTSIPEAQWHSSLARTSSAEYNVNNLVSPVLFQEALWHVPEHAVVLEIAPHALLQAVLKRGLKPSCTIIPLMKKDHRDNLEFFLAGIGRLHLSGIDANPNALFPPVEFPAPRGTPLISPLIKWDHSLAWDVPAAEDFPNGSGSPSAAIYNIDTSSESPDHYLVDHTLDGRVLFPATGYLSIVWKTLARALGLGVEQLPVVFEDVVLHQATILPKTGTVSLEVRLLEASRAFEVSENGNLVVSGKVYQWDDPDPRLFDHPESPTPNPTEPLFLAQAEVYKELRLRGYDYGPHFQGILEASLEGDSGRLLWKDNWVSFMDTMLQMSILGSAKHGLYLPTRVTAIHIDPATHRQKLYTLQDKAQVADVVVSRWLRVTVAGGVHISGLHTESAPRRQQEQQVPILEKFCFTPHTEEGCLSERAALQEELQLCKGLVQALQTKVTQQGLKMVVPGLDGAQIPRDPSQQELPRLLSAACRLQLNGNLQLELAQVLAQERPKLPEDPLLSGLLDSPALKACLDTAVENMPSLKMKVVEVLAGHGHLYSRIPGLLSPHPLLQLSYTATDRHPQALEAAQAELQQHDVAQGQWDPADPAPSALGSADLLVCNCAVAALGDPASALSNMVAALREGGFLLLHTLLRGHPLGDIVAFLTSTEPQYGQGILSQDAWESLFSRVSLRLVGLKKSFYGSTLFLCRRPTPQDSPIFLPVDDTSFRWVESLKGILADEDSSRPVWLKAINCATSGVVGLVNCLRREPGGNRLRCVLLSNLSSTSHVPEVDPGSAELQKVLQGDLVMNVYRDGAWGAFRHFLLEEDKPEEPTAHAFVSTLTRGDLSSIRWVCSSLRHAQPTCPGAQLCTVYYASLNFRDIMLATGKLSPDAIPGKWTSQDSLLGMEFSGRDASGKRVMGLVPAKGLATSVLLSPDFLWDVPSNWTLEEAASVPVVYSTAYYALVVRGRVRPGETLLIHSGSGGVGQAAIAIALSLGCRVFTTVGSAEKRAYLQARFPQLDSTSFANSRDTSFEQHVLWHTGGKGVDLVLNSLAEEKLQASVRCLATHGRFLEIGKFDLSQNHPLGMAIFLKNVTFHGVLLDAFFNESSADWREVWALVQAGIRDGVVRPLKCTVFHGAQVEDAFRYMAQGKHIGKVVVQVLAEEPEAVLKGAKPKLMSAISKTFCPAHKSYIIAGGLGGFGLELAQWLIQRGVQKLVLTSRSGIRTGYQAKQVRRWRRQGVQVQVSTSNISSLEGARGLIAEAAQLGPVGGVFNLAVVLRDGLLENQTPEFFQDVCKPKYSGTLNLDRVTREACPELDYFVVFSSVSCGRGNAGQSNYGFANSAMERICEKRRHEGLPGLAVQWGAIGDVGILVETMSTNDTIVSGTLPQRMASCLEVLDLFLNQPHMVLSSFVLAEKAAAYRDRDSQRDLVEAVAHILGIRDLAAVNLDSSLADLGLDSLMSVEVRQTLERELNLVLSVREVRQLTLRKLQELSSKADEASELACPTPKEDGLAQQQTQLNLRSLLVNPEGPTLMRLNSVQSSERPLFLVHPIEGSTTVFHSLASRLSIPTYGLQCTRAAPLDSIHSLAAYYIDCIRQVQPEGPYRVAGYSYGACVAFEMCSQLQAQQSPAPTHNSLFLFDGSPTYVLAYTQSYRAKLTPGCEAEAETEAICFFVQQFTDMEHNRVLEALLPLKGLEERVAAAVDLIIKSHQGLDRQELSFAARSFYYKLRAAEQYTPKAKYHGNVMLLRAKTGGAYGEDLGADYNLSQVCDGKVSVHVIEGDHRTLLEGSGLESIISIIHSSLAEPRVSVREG", "details": "HeLa soluble proteome, FP-Rh fluorescence, measured here: Anti-Target FAS, stronger effect = higher value"}}, "data": [{"compound": "COC(=O)N1C(=O)[C@](Cc2ccccc2)(c2ccccc2)N1C(=O)OC", "values": [{"measurement": "inhibition", "setting": "Anti-Target PREP; at 1 µM", "result": 0, "unit": "%"}, {"measurement": "inhibition", "setting": "Anti-Target PREP; at 20 µM", "result": 0, "unit": "%"}, {"measurement": "inhibition", "setting": "Anti-Target CES; at 1 µM", "result": "> 50", "unit": "%"}, {"measurement": "inhibition", "setting": "Anti-Target CES; at 20 µM", "result": "> 50", "unit": "%"}, {"measurement": "inhibition", "setting": "Anti-Target ABHD10; measured here: Anti-Target ABHD10, at 1 µM", "result": 0, "unit": "%"}, {"measurement": "inhibition", "setting": "Anti-Target ABHD10; measured here: Anti-Target ABHD10, at 20 µM", "result": 0, "unit": "%"}, {"measurement": "inhibition", "setting": "[1]; at 1 µM", "result": 75, "unit": "%"}, {"measurement": "inhibition", "setting": "[1]; at 20 µM", "result": 100, "unit": "%"}, {"measurement": "inhibition", "setting": "[2]; at 1 µM", "result": 0, "unit": "%"}, {"measurement": "inhibition", "setting": "[2]; at 20 µM", "result": "> 50", "unit": "%"}, {"measurement": "inhibition", "setting": "[3]; at 1 µM", "result": 0, "unit": "%"}, {"measurement": "inhibition", "setting": "[3]; at 20 µM", "result": "> 50", "unit": "%"}]}]}
